# Data as given in patent publication US20220168430A1, “THERAPEUTIC METHODS FOR TREATING HEPATITIS B” (priority 2019, published 2022).
# Read-outs that look alike come from different tables or passages of the source.
# How the values were obtained:
# HBV genome = experiment: IC 50 of HBV siRNA duplexes (Table A); set-up: species or system Hepatitis B virus; details: siRNA duplex
# HBV DNA = HBV DNA in culture supernatants of HBV-infected PHH by qPCR, single agents and double combinations (Examples 1-4); format: cell-based, HBV genotype D; primary human hepatocytes; details: Hepatitis B virus; for inhibition at 0.005 µM / inhibition at 0.015 µM / inhibition at 0.044 µM / inhibition at 0.133 µM / inhibition at 0.4 µM: HBV DNA, (V) 0.00 μg/mL; for inhibition at 0.005 µM: (VI) 0.005 μM; for inhibition at 0.015 µM: (VI) 0.015 μM; for inhibition at 0.044 µM: (VI) 0.044 μM; for inhibition at 0.133 µM: (VI) 0.133 μM; for inhibition at 0.4 µM: (VI) 0.400 μM; for EC50: HBV DNA endpoint, PHH, determined in an earlier separate experiment, read-out: EC50; for inhibition at 0.05 µM: (VII) 0.05 μM alone; for inhibition at 0.15 µM: (VII) 0.15 μM alone; for inhibition at 0.44 µM: (VII) 0.44 μM alone; for inhibition at 1.33 µM: (VII) 1.33 μM alone; for inhibition at 4 µM: (VII) 4.00 μM alone
# Method: (§1) The day PHH seeding date was defined as day 0.
# (§2) The PHH were infected with 400 HBV GE/cell of HBV genotype D type HBV on day 1.
# (§3) The test articles were further diluted with the culture medium to the final test concentrations.
# (§4) All the test articles were further diluted 100 times with the culture medium. The final concentration of DMSO in the culture medium was […].
# (§5) The compounds were tested at 7 concentrations, 3-fold dilution, in triplicate.
# (§6) Four two-way combinations were performed on a 5×5 matrix, in triplicate plates. Transfection reagent was present in all wells. The culture medium containing the articles were refreshed every 1 or 2 days.
# DNA in the culture supernatants harvested on days 8 was isolated with QIAamp 96 DNA Blood Kit (Qiagen-51162). For each sample, 100 μl of each culture supernatant was used to extract DNA. The DNA was eluted with 180 μl of AE. HBV DNA in the culture supernatants was quantified by quatitative PCR using primers and probes outlined in Table 3. Percent inhibition of HBV DNA was calculated with the formula below:
# % Inh. HBV DNA=[1−value of sample/AVG. value of Medium control]×100.
# (§7) Results of double combination studies were analyzed using MacSynergy II software (Prichard and Shipman, 1992).
# HBsAg = experiment: microbe, parasite or virus in culture; format: cell-based, HBV genotype D; primary human hepatocytes; details: Hepatitis B virus; for inhibition at 0.005 µM / inhibition at 0.015 µM / inhibition at 0.044 µM / inhibition at 0.133 µM / inhibition at 0.4 µM: read-out: AVERAGE % INHIBITION, HBsAg, (V) 0.00 μg/mL; for inhibition at 0.005 µM: (VI) 0.005 μM; for inhibition at 0.015 µM: (VI) 0.015 μM; for inhibition at 0.044 µM: (VI) 0.044 μM; for inhibition at 0.133 µM: (VI) 0.133 μM; for inhibition at 0.4 µM: (VI) 0.400 μM; for inhibition at 0.05 µM: (VII) 0.05 μM alone; for inhibition at 0.15 µM: (VII) 0.15 μM alone; for inhibition at 0.44 µM: (VII) 0.44 μM alone; for inhibition at 1.33 µM: (VII) 1.33 μM alone; for inhibition at 4 µM: (VII) 4.00 μM alone
# Method: as §1, §2, §3, §4, §5, §6
# HBsAg in the culture supernatants harvested on days 8 was measured using the HBsAg/ELISA kit (Autobio) according to the manual. The samples were diluted with PBS to get the signal in the range of the standard curve. Percent inhibition of HBsAg was calculated with the formula below:
# % Inh. HBsAg=[1−HBsAg quantity of sample/[…] of DMSO control]×100
# as §7
# [1] = read-out: AVERAGE % INHIBITION, Exp 1
# [2] = read-out: AVERAGE % INHIBITION, Exp 2
compound,measurement,setting,value
"1m: ""double stranded siRNA molecules selected from the group consisting of 1m, 2m, 3m ... 15m"" (sense AGGUAUGUUGCCCGUUUGUUU; antisense UUUCCAUACAACGGGCAAACA; chemistry not fully specified; one strand is listed 3' to 5') [Compound 1m]",IC50,HBV genome,1.43 nM
"2m: ""double stranded siRNA molecules selected from the group consisting of 1m, 2m, 3m ... 15m"" (sense GCUCAGUUUACUAGUGCCAUU; antisense UUCGAGUCAAAUGAUCACGGU; chemistry not fully specified; one strand is listed 3' to 5') [Compound 2m]",IC50,HBV genome,0.37 nM
"3m: ""double stranded siRNA molecules selected from the group consisting of 1m, 2m, 3m ... 15m"" (sense CCGUGUGCACUUCGCUUCAUU; antisense UUGGCACACGUGAAGCGAAGU; chemistry not fully specified) [Compound 3m]",IC50,HBV genome,0.06 nM
"4m: ""double stranded siRNA molecules selected from the group consisting of 1m, 2m, 3m ... 15m"" (sense GCUCAGUUUACUAGUGCCAUU; antisense UUCGAGUCAAAUGAUCACGGU; chemistry not fully specified; one strand is listed 3' to 5') [Compound 4m]",IC50,HBV genome,0.31 nM
"5m: ""double stranded siRNA molecules selected from the group consisting of 1m, 2m, 3m ... 15m"" (sense CCGUGUGCACUUCGCUUCAUU; antisense UUGGCACACGUGAAGCGAAGU; chemistry not fully specified) [Compound 5m]",IC50,HBV genome,0.06 nM
"6m: ""double stranded siRNA molecules selected from the group consisting of 1m, 2m, 3m ... 15m"" (sense CUGGCUCAGUUUACUAGUGUU; antisense UUGACCGAGUCAAAUGAUCAC; chemistry not fully specified; one strand is listed 3' to 5') [Compound 6m]",IC50,HBV genome,0.05 nM
"8m: ""double stranded siRNA molecules selected from the group consisting of 1m, 2m, 3m ... 15m"" (sense GCUCAGUUUACUAGUGCCAUU; antisense UUCGAGUCAAAUGAUCACGGU; chemistry not fully specified; one strand is listed 3' to 5') [Compound 8m]",IC50,HBV genome,0.24 nM
"9m: ""double stranded siRNA molecules selected from the group consisting of 1m, 2m, 3m ... 15m"" (sense AGGUAUGUUGCCCGUUUGUUU; antisense UUUCCAUACAACGGGCAAACA; chemistry not fully specified; one strand is listed 3' to 5') [Compound 9m]",IC50,HBV genome,0.13 nM
"10m: ""double stranded siRNA molecules selected from the group consisting of 1m, 2m, 3m ... 15m"" (sense GCCGAUCCAUACUGCGGAAUU; antisense UUCGGCUAGGUAUGACGCCUU; chemistry not fully specified; one strand is listed 3' to 5') [Compound 10m]",IC50,HBV genome,0.34 nM
"11m: ""double stranded siRNA molecules selected from the group consisting of 1m, 2m, 3m ... 15m"" (sense GCCGAUCCAUACUGCGGAAUU; antisense UUCGGCUAGGUAUGACGCCUU; chemistry not fully specified; one strand is listed 3' to 5') [Compound 11m]",IC50,HBV genome,0.31 nM
"12m: ""double stranded siRNA molecules selected from the group consisting of 1m, 2m, 3m ... 15m"" (sense GCCGAUCCAUACUGCGGAAUU; antisense UUCGGCUAGGUAUGACGCCUU; chemistry not fully specified; one strand is listed 3' to 5') [Compound 12m]",IC50,HBV genome,0.16 nM
COCCCOc1cc2c(nc1OC)-c1cc(=O)c(C(=O)O)cn1[C@H](C(C)C)C2 [(VI)],inhibition at 0.005 µM,HBV DNA; Experiment 1,0.64%
same,inhibition at 0.015 µM,HBV DNA; Experiment 1,6.77%
same,inhibition at 0.044 µM,HBV DNA; Experiment 1,10.9%
same,inhibition at 0.133 µM,HBV DNA; Experiment 1,26.7%
same,inhibition at 0.4 µM,HBV DNA; Experiment 1,21.8%
same,inhibition at 0.005 µM,HBV DNA; Experiment 2,7.21%
same,inhibition at 0.015 µM,HBV DNA; Experiment 2,13.7%
same,inhibition at 0.044 µM,HBV DNA; Experiment 2,19.3%
same,inhibition at 0.133 µM,HBV DNA; Experiment 2,12.8%
same,inhibition at 0.4 µM,HBV DNA; Experiment 2,27.1%
same,EC50,HBV DNA,6 nM
same,EC50,HBsAg,13 nM
same,inhibition at 0.005 µM,HBsAg; Experiment 1,19.1%
same,inhibition at 0.015 µM,HBsAg; Experiment 1,43.1%
same,inhibition at 0.044 µM,HBsAg; Experiment 1,62.2%
same,inhibition at 0.133 µM,HBsAg; Experiment 1,74%
same,inhibition at 0.4 µM,HBsAg; Experiment 1,81%
same,inhibition at 0.005 µM,HBsAg; Experiment 2,11.9%
same,inhibition at 0.015 µM,HBsAg; Experiment 2,38.1%
same,inhibition at 0.044 µM,HBsAg; Experiment 2,56.7%
same,inhibition at 0.133 µM,HBsAg; Experiment 2,69.7%
same,inhibition at 0.4 µM,HBsAg; Experiment 2,77.4%
Cn1cnc(COC(=O)N[C@H]2CCc3c(C(=O)Nc4ccc(F)c(Cl)c4)ccc(F)c32)n1 [(VII)],inhibition at 0.05 µM,HBV DNA; Exp 1,-22.6%
same,inhibition at 0.15 µM,HBV DNA; Exp 1,28.7%
same,inhibition at 0.44 µM,HBV DNA; Exp 1,50%
same,inhibition at 1.33 µM,HBV DNA; Exp 1,53.9%
same,inhibition at 4 µM,HBV DNA; Exp 1,56.2%
same,inhibition at 0.05 µM,HBV DNA; Exp 2,-0.21%
same,inhibition at 0.15 µM,HBV DNA; Exp 2,16.1%
same,inhibition at 0.44 µM,HBV DNA; Exp 2,31.2%
same,inhibition at 1.33 µM,HBV DNA; Exp 2,32.9%
same,inhibition at 4 µM,HBV DNA; Exp 2,41.3%
same,EC50,HBV DNA,76 nM
same,EC50,HBsAg,> 4000 nM
same,inhibition at 0.05 µM,HBsAg; [1],-14.1%
same,inhibition at 0.15 µM,HBsAg; [1],-5.43%
same,inhibition at 0.44 µM,HBsAg; [1],-9.81%
same,inhibition at 1.33 µM,HBsAg; [1],29.9%
same,inhibition at 4 µM,HBsAg; [1],49.6%
same,inhibition at 0.05 µM,HBsAg; [2],-3.42%
same,inhibition at 0.15 µM,HBsAg; [2],-8.51%
same,inhibition at 0.44 µM,HBsAg; [2],1.73%
same,inhibition at 1.33 µM,HBsAg; [2],29.4%
same,inhibition at 4 µM,HBsAg; [2],48.7%
